From ChEMBL document CHEMBL4813941, “Secondary Metabolites from the Leather Coral-Derived Fungal Strain Xylaria sp. FM1005 and Their Glycoprotein IIb/IIIa Inhibitory Activity” (J Nat Prod, 2021) come the findings set out here.

Series [1] deals with Plasma. The series can be described thus: Antiplatelet activity in Sprague-Dawley rat platelet-rich plasma assessed as inhibition of ADP-induced platelet aggregation at 1 ug/ml preincubated for 5 mins followed by ADP addition and measured after 5 mins by light microscopic analysis. In kind it is functional, cell-free. To be noted: dose 1.0 µg/ml, time 10.0 min.
The next series has as its system Escherichia coli. As to the kind of experiment: Antibacterial activity against Escherichia coli at 80 ug/ml incubated for 24 hrs by resazurin dye based broth microdilution method. Format: functional, organism-based. To be noted: dose 80.0 µg/ml. Background: Alamar Blue is a resazurin reagent that responds to reducing activity.
The next series concerns HEK293. The series can be described thus: Antiproliferative activity against human HEK293 cells at 40 uM by SRB assay. In kind it is cell-based. To be noted: hek293, 40 µM. A general note: The SRB assay estimates cell density from bound dye.
For another series, the system named is A2780. As to the kind of experiment: Antiproliferative activity against human A2780 cells at 40 uM incubated for 72 hrs by CyQuant assay. Format: cell-based. To be noted: a2780, 72 h.
Series [2] addresses T1, Integrin subunit alpha 2b/beta-3 (Rattus norvegicus) (UniProt D3ZAC0+Q8R2H2). As to the kind of experiment: (§1) Inhibition of fibrinogen binding to rat platelet integrin alpha2b beta3 by ELISA based solid phase binding assay. In kind it is cell-based. Background: An ELISA detects its analyte on a solid surface through an enzyme-linked reagent.
Series [3] concerns the target T2, Integrin subunit alpha 2b/beta-3 (Rattus norvegicus, UniProt D3ZAC0+Q8R2H2).
T2 sequence (D3ZAC0 whole entry): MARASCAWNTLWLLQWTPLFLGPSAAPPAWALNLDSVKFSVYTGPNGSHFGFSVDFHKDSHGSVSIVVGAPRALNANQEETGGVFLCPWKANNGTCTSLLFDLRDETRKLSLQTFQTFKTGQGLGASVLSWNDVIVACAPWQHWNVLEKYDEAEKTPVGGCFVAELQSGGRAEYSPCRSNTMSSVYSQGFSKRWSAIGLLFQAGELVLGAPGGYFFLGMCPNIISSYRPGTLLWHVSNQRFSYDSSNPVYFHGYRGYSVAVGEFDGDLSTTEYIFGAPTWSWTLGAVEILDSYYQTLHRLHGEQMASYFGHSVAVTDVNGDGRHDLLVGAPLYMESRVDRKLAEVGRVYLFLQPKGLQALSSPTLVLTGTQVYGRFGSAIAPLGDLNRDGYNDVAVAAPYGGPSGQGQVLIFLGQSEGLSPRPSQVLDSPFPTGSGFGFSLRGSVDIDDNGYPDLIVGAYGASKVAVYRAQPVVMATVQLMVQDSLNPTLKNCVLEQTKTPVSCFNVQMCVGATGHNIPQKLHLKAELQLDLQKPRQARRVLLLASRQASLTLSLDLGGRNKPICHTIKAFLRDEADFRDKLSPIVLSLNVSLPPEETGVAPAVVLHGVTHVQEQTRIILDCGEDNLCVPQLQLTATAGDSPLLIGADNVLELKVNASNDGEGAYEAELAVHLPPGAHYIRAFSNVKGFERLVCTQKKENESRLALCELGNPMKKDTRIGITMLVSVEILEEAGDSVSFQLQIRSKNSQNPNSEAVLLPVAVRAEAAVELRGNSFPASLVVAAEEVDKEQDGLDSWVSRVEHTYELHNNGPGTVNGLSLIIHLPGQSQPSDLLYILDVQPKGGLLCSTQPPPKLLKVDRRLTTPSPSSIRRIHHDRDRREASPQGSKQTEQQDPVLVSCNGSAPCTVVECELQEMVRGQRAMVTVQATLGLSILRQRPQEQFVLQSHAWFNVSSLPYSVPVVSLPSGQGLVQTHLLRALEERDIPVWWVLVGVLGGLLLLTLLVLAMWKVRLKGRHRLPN
T2 sequence (Q8R2H2 whole entry): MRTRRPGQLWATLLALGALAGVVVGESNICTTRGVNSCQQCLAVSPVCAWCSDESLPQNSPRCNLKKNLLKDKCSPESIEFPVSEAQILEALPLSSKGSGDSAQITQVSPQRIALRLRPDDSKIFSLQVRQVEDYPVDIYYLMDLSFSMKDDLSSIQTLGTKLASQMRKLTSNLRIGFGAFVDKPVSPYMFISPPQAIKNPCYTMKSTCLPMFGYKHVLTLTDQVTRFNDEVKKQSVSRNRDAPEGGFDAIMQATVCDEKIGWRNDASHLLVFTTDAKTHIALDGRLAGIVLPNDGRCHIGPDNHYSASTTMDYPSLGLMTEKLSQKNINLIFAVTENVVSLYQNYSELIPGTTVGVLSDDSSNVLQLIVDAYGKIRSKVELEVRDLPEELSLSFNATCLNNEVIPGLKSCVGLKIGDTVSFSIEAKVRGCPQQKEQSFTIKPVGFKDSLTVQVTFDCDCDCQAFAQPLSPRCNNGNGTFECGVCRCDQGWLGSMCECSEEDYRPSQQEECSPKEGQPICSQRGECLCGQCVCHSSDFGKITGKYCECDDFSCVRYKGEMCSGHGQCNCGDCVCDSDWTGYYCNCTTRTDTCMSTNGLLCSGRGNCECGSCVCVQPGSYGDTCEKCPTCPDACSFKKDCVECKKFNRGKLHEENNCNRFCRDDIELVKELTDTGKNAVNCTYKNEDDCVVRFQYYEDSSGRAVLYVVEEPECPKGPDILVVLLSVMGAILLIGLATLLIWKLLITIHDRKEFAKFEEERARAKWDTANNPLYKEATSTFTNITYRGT
The description is as §1. In kind it is cell-based.

In series [4] the test system is Plasma. As to the kind of experiment: Antiplatelet activity in Sprague-Dawley rat platelet-rich plasma assessed as inhibition of CaCl2-induced platelet aggregation at 1 ug/ml preincubated for 5 mins followed by CaCl2 addition and measured after 5 mins by light microscopic analysis. Format: functional, cell-free. As to conditions: dose 1.0 µg/ml, time 10.0 min.
For a further series, the system named is Bacillus subtilis. The series can be described thus: Antibacterial activity against Bacillus subtilis at 80 ug/ml incubated for 24 hrs by resazurin dye based broth microdilution method. To be noted: dose 80.0 µg/ml. Format: functional, organism-based.
The next series has as its system Pseudomonas aeruginosa. The series can be described thus: Antibacterial activity against Pseudomonas aeruginosa at 80 ug/ml incubated for 24 hrs by resazurin dye based broth microdilution method. As to conditions: dose 80.0 µg/ml. In kind it is functional, organism-based.
In another series the test system is Staphylococcus aureus. As to the kind of experiment: Antibacterial activity against Staphylococcus aureus at 80 ug/ml incubated for 24 hrs by resazurin dye based broth microdilution method. In kind it is functional, organism-based. To be noted: dose 80.0 µg/ml.
The target in series [5] is T1, Integrin subunit alpha 2b/beta-3 (Rattus norvegicus). The series can be described thus: Inhibition of fibrinogen binding to rat platelet integrin alpha2b beta3 at 1 ug/ml by ELISA based solid phase binding assay. Format: cell-based. To be noted: dose 1.0 µg/ml.

Values joined by “and” are separate entries in the source; they are usually repeats but may differ in a detail not shown here. Equal entries are not always repeated. Active and inactive are the calls of the source. No cut-off for these calls is given here.

With `CC#CCOc1ccc(C[C@H](NC(=O)CCCCC)C(=O)OC)cc1`, the result with Plasma [1] and in the series with Plasma [4] was Active. Also, the outcome in the series on Escherichia coli, in the series with Bacillus subtilis, in the series with Pseudomonas aeruginosa and in the series with Staphylococcus aureus was inactive. Also, the Activity result in the series on HEK293 and in the series on A2780 was “Non-Toxic” in each case. In addition, the inhibition result in [2] was “Dose-Dependent Effect”. In addition, the 50% inhibitory concentration (IC50) – broadly, the concentration at which inhibition is half-maximal – in series [3] was 0.89 µM and 0.897 µM.

In the case of `C/C(=C/COc1ccc(CC(=O)O)cc1)C(=O)O`, the outcome in the series on Plasma [1], in the series with Escherichia coli, in the series with Plasma [4], in the series with Bacillus subtilis, in the series on Pseudomonas aeruginosa and in the series on Staphylococcus aureus was inactive. Further, the Activity result in the series on HEK293 and in the series on A2780 was “Non-Toxic” throughout. Moreover, the inhibition result in series [5] was “inactive”.

Regarding `CC#CCOc1ccc(C[C@H](NC(=O)CCCC)C(=O)O)cc1`, the outcome in the series on Plasma [1], in the series on Escherichia coli, with Plasma [4], in the series on Bacillus subtilis, with Pseudomonas aeruginosa and in the series on Staphylococcus aureus was inactive. Besides, the Activity result in the series on HEK293 and in the series with A2780 was “Non-Toxic” throughout. The inhibition entry in series [5] is “inactive”.

For `CC#CCOc1ccc(C[C@H](NC(=O)CCC)C(=O)O)cc1`, the outcome in the series with Plasma [1], in the series with Escherichia coli, in the series with Plasma [4], with Bacillus subtilis, in the series on Pseudomonas aeruginosa and with Staphylococcus aureus was inactive. Besides, the Activity result in the series with HEK293 and with A2780 was “Non-Toxic” throughout. Besides, the inhibition entry in series [5] was “inactive”.

In the case of `CCCCCC(=O)N[C@@H](Cc1ccc(OCC#CCO)cc1)C(=O)O`, the outcome with Plasma [1], in the series on Escherichia coli, in the series with Plasma [4], with Bacillus subtilis, in the series on Pseudomonas aeruginosa and in the series on Staphylococcus aureus was inactive. The Activity result with HEK293 and with A2780 was “Non-Toxic” in each case. Besides, the inhibition result in [5] was “inactive”.

For `CCCCS(=O)(=O)N[C@@H](Cc1ccc(OCCCCC2CCNCC2)cc1)C(=O)O` [TIROFIBAN], in [3], the IC50 was 0.13 µM and 0.136 µM.

With `CC#CCOc1ccc(C[C@H](NC(=O)CCCCC)C(=O)O)cc1`, the outcome in the series on Plasma [1] and in the series on Plasma [4] was Active. In addition, the outcome with Escherichia coli, with Bacillus subtilis, with Pseudomonas aeruginosa and in the series with Staphylococcus aureus was inactive. Besides, the Activity entry in the series on HEK293 and in the series on A2780 was “Non-Toxic” throughout. The inhibition result in series [2] is “Dose-Dependent Effect”. Further, the IC50 in [3] is 0.61 µM and 0.603 µM.
